ChEMBL document CHEMBL4387783, “Bioactive triterpene glycosides from the fruit of Stauntonia hexaphylla and insights into the molecular mechanism of its inflammatory effects” (Bioorg Med Chem Lett, 2019)
Active and inactive are the calls of the source. The rule behind the calls is not given here.

How the values were obtained:
RAW264.7 [1] = experiment: Antiinflammatory activity in mouse RAW264.7 cells assessed as inhibition of LPS-induced nitirc oxide production preincubated for 1 hr followed by LPS-stimulation and measured after 18 hrs by Griess assay; type: functional, cell-based
[2] = Cytotoxicity against LPS-stimulated mouse RAW264.7 cells assessed as cell viability at antiinflammatory IC50 preincubated for 1 hr followed by LPS-stimulation and measured after 18 hrs by MTT assay relative to control; type: cell-based; conditions: LPS-stimulated RAW264.7 cells, read-out: Activity
RAW264.7 [3] = experiment: Antiinflammatory activity in mouse RAW264.7 cells assessed as inhibition of LPS-induced iNOS expression at 1 to 5 uM preincubated for 1 hr followed by LPS-stimulation and measured after 16 hrs by Western blot analysis; type: functional, cell-based
RAW264.7 [4] = experiment: Antiinflammatory activity in mouse RAW264.7 cells assessed as inhibition of LPS-induced COX2 expression at 1 to 5 uM preincubated for 1 hr followed by LPS-stimulation and measured after 16 hrs by Western blot analysis; type: functional, cell-based

Compound | IC50 (RAW264.7 [1]) [µM] | further results
C[C@@H]1O[C@@H](O[C@H]2[C@H](O[C@H]3CC[C@]4(C)[C@H]5CC=C6[C@@H]7CC(C)(C)CC[C@]7(C(=O)O)CC[C@@]6(C)[C@]5(C)CC[C@H]4C3(C)C)OC[C@H](O[C@@H]3O[C@H](CO)[C@@H](O)[C@H](O)[C@H]3O)[C@@H]2O)[C@H](O)[C@H](O)[C@H]1O[C@@H]1O[C@H](CO)[C@@H](O)[C@H](O)[C@H]1O | > 50 | 
C[C@@H]1O[C@@H](O[C@H]2[C@H](O)[C@@H](O)[C@H](OC[C@H]3O[C@@H](OC(=O)[C@]45CCC(C)(C)C[C@H]4C4=CC[C@@H]6[C@@]7(C)CC[C@H](O[C@@H]8OC[C@H](O)[C@H](O)[C@H]8O)[C@@](C)(CO)[C@@H]7CC[C@@]6(C)[C@]4(C)CC5)[C@H](O)[C@@H](O)[C@@H]3O)O[C@@H]2CO)[C@H](O)[C@H](O)[C@H]1O [CAULOSIDE D] | 3.68 to 3.7 | viability at 18 h [2]: < 60%
CC1=CC(=O)CC(C)(C)[C@@]1(O)/C=C/[C@H](C)O | > 50 | 
COc1cc(O)cc(OC)c1O[C@@H]1O[C@H](CO)[C@@H](O)[C@H](O)[C@H]1O [LEONURISIDE] | > 50 | 
CC1(C)CC[C@]2(C(=O)O)CC[C@]3(C)C(=CC[C@@H]4[C@@]5(C)CC[C@H](O[C@@H]6O[C@H](CO)[C@@H](O)[C@H](O)[C@H]6O)[C@@](C)(CO)[C@@H]5CC[C@]43C)[C@@H]2C1 [Hederagenin-3-O-beta-D-glucopyranoside] | 13.4 | 
C[C@@H]1O[C@@H](O[C@H]2[C@H](O[C@H]3CC[C@]4(C)[C@H]5CC=C6[C@@H]7CC(C)(C)CC[C@]7(C(=O)O)CC[C@@]6(C)[C@]5(C)CC[C@H]4C3(C)C)O[C@H](CO)[C@@H](O)[C@@H]2O)[C@H](O)[C@H](O)[C@H]1O | 1.5 | viability at 18 h [2]: < 60%
CC1(C)CC[C@]2(C(=O)O[C@@H]3O[C@H](CO[C@@H]4O[C@H](CO)[C@@H](O)[C@H](O)[C@H]4O)[C@@H](O)[C@H](O)[C@H]3O)CC[C@]3(C)C(=CC[C@@H]4[C@@]5(C)CC[C@H](O[C@@H]6OC[C@H](O)[C@H](O)[C@H]6O[C@@H]6O[C@H](CO)[C@@H](O)[C@H](O)[C@H]6O)C(C)(C)[C@@H]5CC[C@]43C)[C@@H]2C1 | > 50 | 
C[C@@H]1O[C@@H](O[C@H]2[C@H](O[C@H]3CC[C@@]4(C)[C@@H](CC[C@]5(C)[C@@H]4CC=C4[C@@H]6CC(C)(C)CC[C@]6(C(=O)O)CC[C@]45C)[C@]3(C)CO)O[C@H](CO)[C@@H](O)[C@@H]2O)[C@H](O)[C@H](O)[C@H]1O | 4.2 to 4.21 | 
CC1(C)CC[C@]2(C(=O)O[C@@H]3O[C@H](CO[C@@H]4O[C@H](CO)[C@@H](O)[C@H](O)[C@H]4O)[C@@H](O)[C@H](O)[C@H]3O)CC[C@]3(C)C(=CC[C@@H]4[C@@]5(C)CC[C@H](O[C@@H]6O[C@H](CO)[C@@H](O)[C@H](O)[C@H]6O)C(C)(C)[C@@H]5CC[C@]43C)[C@@H]2C1 | > 50 | 
C[C@@H]1O[C@@H](O[C@H]2[C@H](O)[C@@H](O)[C@H](OC[C@H]3O[C@@H](OC(=O)[C@]45CCC(C)(C)C[C@H]4C4=CC[C@@H]6[C@@]7(C)CC[C@H](O)[C@@](C)(CO)[C@@H]7CC[C@@]6(C)[C@]4(C)CC5)[C@H](O)[C@@H](O)[C@@H]3O)O[C@@H]2CO)[C@H](O)[C@H](O)[C@H]1O [KIZUTA CIRENSENOSIDE O SAPONIN K3] | > 50 | 
COC(=O)C(CC(=O)O)OC(=O)/C=C/c1ccc(O)c(O)c1 (stereo not drawn) | > 50 | 
CC1(C)[C@H](O)CC[C@]2(C)[C@H]3CC=C4[C@@H]5C[C@](C)(CO)CC[C@]5(C(=O)O)CC[C@@]4(C)[C@]3(C)CC[C@@H]12 | > 50 | 
CC1(C)CC[C@]2(C(=O)O)CC[C@]3(C)C(=CC[C@@H]4[C@@]5(C)CC[C@H](O[C@@H]6OC[C@H](O)[C@H](O)[C@H]6O)[C@@](C)(CO)[C@@H]5CC[C@]43C)[C@@H]2C1 | 2.25 to 2.3 | 
CC1(C)CC[C@]2(C(=O)O)CC[C@]3(C)C(=CC[C@@H]4[C@@]5(C)CC[C@H](O[C@@H]6OC[C@H](O)[C@H](O)[C@H]6O)C(C)(C)[C@@H]5CC[C@]43C)[C@@H]2C1 | 4 to 4.04 | 
C[C@@H]1O[C@@H](O[C@H]2[C@H](O[C@H]3CC[C@@]4(C)[C@@H](CC[C@]5(C)[C@@H]4CC=C4[C@@H]6CC(C)(C)CC[C@]6(C(=O)O)CC[C@]45C)[C@]3(C)CO)OC[C@H](O)[C@@H]2O)[C@H](O)[C@H](O)[C@H]1O [ALPHA-HEDERIN] | 1.1 | inhibition (RAW264.7 [3]): Active; inhibition (RAW264.7 [4]): Active
CC1(C)CC[C@]2(C(=O)O)CC[C@]3(C)C(=CC[C@@H]4[C@@]5(C)CC[C@H](O[C@@H]6O[C@H](CO)[C@@H](O)[C@H](O)[C@H]6O[C@@H]6OC[C@H](O)[C@H](O)[C@H]6O)C(C)(C)[C@@H]5CC[C@]43C)[C@@H]2C1 | 3.1 to 3.13 | 
CC1(C)CC[C@]2(C(=O)O)CC[C@]3(C)C(=CC[C@@H]4[C@@]5(C)CC[C@@H](O)[C@@](C)(CO)[C@@H]5CC[C@]43C)[C@@H]2C1 | > 50 | 
COc1cc(CCC(=O)O)ccc1O [DIHYDROFERULIC ACID] | > 50 | 
C[C@@H]1O[C@@H](O[C@H]2[C@H](O)[C@@H](O)[C@H](OC[C@H]3O[C@@H](OC(=O)[C@]45CCC(C)(C)C[C@H]4C4=CC[C@@H]6[C@@]7(C)CC[C@H](O[C@@H]8OC[C@H](O)[C@H](O)[C@H]8O[C@@H]8O[C@H](CO)[C@@H](O)[C@H](O)[C@H]8O)C(C)(C)[C@@H]7CC[C@@]6(C)[C@]4(C)CC5)[C@H](O)[C@@H](O)[C@@H]3O)O[C@@H]2CO)[C@H](O)[C@H](O)[C@H]1O | > 50 | 
C[C@@H]1O[C@@H](O[C@H]2[C@H](O[C@H]3CC[C@@]4(C)[C@@H](CC[C@]5(C)[C@@H]4CC=C4[C@@H]6CC(C)(C)CC[C@]6(C(=O)O[C@@H]6O[C@H](CO[C@@H]7O[C@H](CO)[C@@H](O[C@@H]8O[C@@H](C)[C@H](O)[C@@H](O)[C@H]8O)[C@H](O)[C@H]7O)[C@@H](O)[C@H](O)[C@H]6O)CC[C@]45C)[C@]3(C)CO)OC[C@H](O)[C@@H]2O)[C@H](O)[C@H](O)[C@H]1O [KALOPANAXSAPONIN B] | > 50 | 
C[C@@H]1O[C@@H](O[C@H]2[C@H](O)[C@@H](O)[C@H](OC[C@H]3O[C@@H](OC(=O)[C@]45CCC(C)(C)C[C@H]4C4=CC[C@@H]6[C@@]7(C)CC[C@H](O[C@@H]8OC[C@H](O)[C@H](O[C@@H]9OC[C@H](O)[C@H](O)[C@H]9O)[C@H]8O)C(C)(C)[C@@H]7CC[C@@]6(C)[C@]4(C)CC5)[C@H](O)[C@@H](O)[C@@H]3O)O[C@@H]2CO)[C@H](O)[C@H](O)[C@H]1O | > 50 | 
C[C@@H]1O[C@@H](O[C@H]2[C@H](O[C@H]3CC[C@]4(C)[C@H]5CC=C6[C@@H]7CC(C)(C)CC[C@]7(C(=O)O[C@@H]7O[C@H](CO[C@@H]8O[C@H](CO)[C@@H](O[C@@H]9O[C@@H](C)[C@H](O)[C@@H](O)[C@H]9O)[C@H](O)[C@H]8O)[C@@H](O)[C@H](O)[C@H]7O)CC[C@@]6(C)[C@]5(C)CC[C@H]4C3(C)C)OC[C@H](O)[C@@H]2O)[C@H](O)[C@H](O)[C@H]1O [HEDERASAPONIN B] | > 50 | 
C[C@@H]1C[C@H]2[C@@H]3CCC4=CC(=O)C=C[C@]4(C)[C@@]3(F)[C@@H](O)C[C@]2(C)[C@@]1(O)C(=O)CO [DEXAMETHASONE] | 0.01 | 
CC1(C)CC[C@]2(C(=O)O[C@@H]3O[C@H](CO[C@@H]4O[C@H](CO)[C@@H](O)[C@H](O)[C@H]4O)[C@@H](O)[C@H](O)[C@H]3O)CC[C@]3(C)C(=CC[C@@H]4[C@@]5(C)CC[C@H](O[C@@H]6OC[C@H](O)[C@H](O)[C@H]6O)[C@@](C)(CO)[C@@H]5CC[C@]43C)[C@@H]2C1 | > 50 | 
C[C@@H]1O[C@@H](O[C@H]2[C@H](O[C@H]3CC[C@]4(C)[C@H]5CC=C6[C@@H]7CC(C)(C)CC[C@]7(C(=O)O[C@@H]7O[C@H](CO)[C@@H](O)[C@H](O)[C@H]7O)CC[C@@]6(C)[C@]5(C)CC[C@H]4C3(C)C)OC[C@H](O)[C@@H]2O)[C@H](O)[C@H](O)[C@H]1O | > 50 | 
C[C@@H]1O[C@@H](O[C@H]2[C@H](O[C@H]3CC[C@]4(C)[C@H]5CC=C6[C@@H]7CC(C)(C)CC[C@]7(C(=O)O)CC[C@@]6(C)[C@]5(C)CC[C@H]4C3(C)C)OC[C@H](O)[C@@H]2O)[C@H](O)[C@H](O)[C@H]1O | 1.3 to 1.33 | inhibition (RAW264.7 [3]): Active; inhibition (RAW264.7 [4]): Active
CC1(C)CC[C@]2(C(=O)O)CC[C@]3(C)C(=CC[C@@H]4[C@@]5(C)C[C@@H](O)[C@H](O)[C@@](C)(CO)[C@@H]5CC[C@]43C)[C@@H]2C1 [ARJUNOLIC ACID] | 15.2 | 
